{"source": "patent US7807418B2", "about": "“Method for producing hybrid polyketide synthases” (Biotica Technology Limited, priority 1996, dated 2010)", "tested_on": "Bacillus subtilis ATCC 6633", "assay": "Determination of antibiotic activity, agar well diffusion, zones of growth inhibition", "format": "cell-based", "details": "nutrient 1.5% agar seeded with B. subtilis; 20 microlitres of test compound as a solution in ethanol (5-10 mg/L) per well; incubated overnight", "description": "A 3 ml overnight culture of Bacillus subtilis ATCC 6633 was grown at 30% C in nutrient broth (Difco). 200 ml of nutrient 1.5% agar (difco) at 46% C was seeded with 1 ml of the B.subtilis culture and poured immediately into petri dishes (25 ml/plate). After drying the plates in a laminar flow hood for 15 minutes, wells ([…] in diameter) were cut using a cork borer and 20 microlitres of the test compound as a solution in ethanol (5-10 mg/L) was added to each well. The plates were kept at 4% C for 5-7 hours to allow the compound to diffuse, and the plates were then incubated overnight at 30% C."}
{"smiles": "COC1(C)CC(OC2C(C)C(=O)OC(C(C)C)C(C)(O)C(O)C(C)C(=O)C(C)CC(C)(O)C(OC3OC(C)CC(N(C)C)C3O)C2C)OC(C)C1O", "note": "(centres unmarked) [(i-but)-erythromycin A]", "values": [{"measurement": "zones of growth inhibition", "value": "Clear zones of growth inhibition"}]}
{"smiles": "CCC(C)C1OC(=O)C(C)C(OC2CC(C)(OC)C(O)C(C)O2)C(C)C(OC2OC(C)CC(N(C)C)C2O)C(C)(O)CC(C)C(=O)C(C)C(O)C1(C)O", "note": "(centres unmarked) [(s-pent)-erythromycin A]", "values": [{"measurement": "zones of growth inhibition", "value": "Clear zones of growth inhibition"}]}
